{
  "source": "the RepoRT retention time repository (doi:10.1021/acs.analchem.1c00972)",
  "assay": "RP, Waters ACQUITY UPLC BEH C18, 100 × 1 mm, 1.7 µm, 50 °C, 0.3 mL/min, estimated dead time 0.17 min; A: water + 0.1% formic acid + 20 mM ammonium formate; B: methanol + 0.1% formic acid + 20 mM ammonium formate; gradient (min/%B) 0/0 15/100 21/100 22/0 30/0",
  "conditions": "stereoisomer not certain",
  "data": [
    {"smiles": "CC12CCC3=C4CCC(=O)C=C4CCC3C1CCC2(O)CC#N", "note": "(configuration not stated) [Dienogest]", "values": [
      {"measurement": "LC retention time", "result": 12.6, "unit": "min"}
    ]},
    {"smiles": "CCCCN1CCCCC1C(=O)Nc1c(C)cccc1C", "note": "(configuration not stated) [Bupivacaine]", "values": [
      {"measurement": "LC retention time", "result": 10.6, "unit": "min"}
    ]},
    {"smiles": "Oc1ccc(C(=C(Cl)Cl)c2ccc(O)cc2)cc1", "note": "[Bisphenol C-dichloride]", "values": [
      {"measurement": "LC retention time", "result": 10.5, "unit": "min"}
    ]},
    {"smiles": "CC(C)(N)CN", "note": "[1,2-Diamino-2-methylpropane]", "values": [
      {"measurement": "LC retention time", "result": 18.5, "unit": "min"}
    ]},
    {"smiles": "CC(O)C(NC(=O)Nc1ncnc2c1ncn2C1OC(CO)C(O)C1O)C(=O)O", "note": "(configuration not stated) [N6-Threonylcarbamoyladenosine]", "values": [
      {"measurement": "LC retention time", "result": 7.6, "unit": "min"}
    ]},
    {"smiles": "O=C(O)CCCCCCC(=O)O", "note": "[Suberic_acid]", "values": [
      {"measurement": "LC retention time", "result": 9.6, "unit": "min"}
    ]},
    {"smiles": "O=C(O)c1cc2ccccc2[nH]1", "note": "[Indole-2-carboxylic acid/Indole-3-carboxylic acid]", "values": [
      {"measurement": "LC retention time", "result": 7.8, "unit": "min"}
    ]},
    {"smiles": "COCC(C)N(C(=O)CS(=O)(=O)O)c1c(C)csc1C", "note": "(configuration not stated) [Dimethenamid-M 27 (ESA)]", "values": [
      {"measurement": "LC retention time", "result": 10.8, "unit": "min"}
    ]},
    {"smiles": "CCNC(=O)c1cccc(C)c1", "note": "[N-Ethyl-3-methylbenzamide]", "values": [
      {"measurement": "LC retention time", "result": 10.7, "unit": "min"}
    ]},
    {"smiles": "CC(C)OC(=O)Nc1ccccc1", "note": "[Propham]", "values": [
      {"measurement": "LC retention time", "result": 12.7, "unit": "min"}
    ]},
    {"smiles": "CC(=O)Nc1ccc(OC2OC(C(=O)O)C(O)C(O)C2O)cc1", "note": "(configuration not stated) [acetaminophen_glucuronide]", "values": [
      {"measurement": "LC retention time", "result": 3.8, "unit": "min"}
    ]},
    {"smiles": "CCC(C(N)=O)(C(N)=O)c1ccccc1", "note": "[PEMA]", "values": [
      {"measurement": "LC retention time", "result": 7.76, "unit": "min"}
    ]},
    {"smiles": "CCN(CC)CCOC(=O)C(Cc1cccc2ccccc12)CC1CCCO1", "note": "(configuration not stated) [Nafronyl]", "values": [
      {"measurement": "LC retention time", "result": 16, "unit": "min"}
    ]},
    {"smiles": "CCC1(O)C(=O)OCc2c1cc1n(c2=O)Cc2cc3ccccc3nc2-1", "note": "(configuration not stated) [Camptothecin]", "values": [
      {"measurement": "LC retention time", "result": 12, "unit": "min"}
    ]},
    {"smiles": "CCNP(=S)(OC)OC(C)=CC(=O)OC(C)C", "note": "(configuration not stated) [Propetamphos]", "values": [
      {"measurement": "LC retention time", "result": 14.6, "unit": "min"}
    ]},
    {"smiles": "NCCc1c[nH]c2ccccc12", "note": "[tryptamine]", "values": [
      {"measurement": "LC retention time", "result": 7, "unit": "min"}
    ]},
    {"smiles": "CCC=Nc1c([N+](=O)[O-])cc(C)c(C)c1[N+](=O)[O-]", "note": "[Pendimethalin-desethyl]", "values": [
      {"measurement": "LC retention time", "result": 8.48, "unit": "min"}
    ]},
    {"smiles": "CC(CCC(=O)O)C1CCC2C3CCC4CC(O)CCC4(C)C3CC(O)C12C", "note": "(configuration not stated) [Deoxycholic acid]", "values": [
      {"measurement": "LC retention time", "result": 17.1, "unit": "min"}
    ]},
    {"smiles": "C#CCOc1ccc(CCNC(=O)C(OCC#C)c2ccc(Cl)cc2)cc1OC", "note": "(configuration not stated) [Mandipropamid]", "values": [
      {"measurement": "LC retention time", "result": 14.3, "unit": "min"}
    ]},
    {"smiles": "O=P(O)(O)CCCl", "note": "[Ethephon]", "values": [
      {"measurement": "LC retention time", "result": 2.01, "unit": "min"}
    ]},
    {"smiles": "CCOP(=S)(OCC)Oc1cnc2ccccc2n1", "note": "[Quinalophos]", "values": [
      {"measurement": "LC retention time", "result": 15.3, "unit": "min"}
    ]},
    {"smiles": "Nc1cc(Cl)cc(Cl)c1", "note": "[3,5-Dichloroaniline]", "values": [
      {"measurement": "LC retention time", "result": 17.6, "unit": "min"}
    ]},
    {"smiles": "CCNc1nc(Cl)nc(NC(C)(C)C#N)n1", "note": "[Cyanazin]", "values": [
      {"measurement": "LC retention time", "result": 11.3, "unit": "min"}
    ]},
    {"smiles": "O=C(NCCN1CCOCC1)c1ccc(Cl)cc1", "note": "[Moclobemide]", "values": [
      {"measurement": "LC retention time", "result": 8.18, "unit": "min"}
    ]},
    {"smiles": "C=CC1CN2CCC1CC2C(O)c1ccnc2ccc(OC)cc12", "note": "(configuration not stated) [quinidine]", "values": [
      {"measurement": "LC retention time", "result": 9.5, "unit": "min"}
    ]},
    {"smiles": "CNC(=O)NCc1cnc(Cl)s1", "values": [
      {"measurement": "LC retention time", "result": 7.69, "unit": "min"}
    ]},
    {"smiles": "O=C1C(Cl)C(CCl)CN1c1cccc(C(F)(F)F)c1", "note": "(configuration not stated) [Flurochloridone]", "values": [
      {"measurement": "LC retention time", "result": 14.6, "unit": "min"}
    ]},
    {"smiles": "O=C(O)CCc1c[nH]c2ccccc12", "note": "[3-Indolepropionic acid]", "values": [
      {"measurement": "LC retention time", "result": 11.7, "unit": "min"}
    ]},
    {"smiles": "Cc1cc(Cl)ccc1N=CN(C)C", "note": "[Chlordimeform]", "values": [
      {"measurement": "LC retention time", "result": 8.37, "unit": "min"}
    ]},
    {"smiles": "CCOc1ccc2ccccc2c1C(=O)NC1C(=O)N2C1SC(C)(C)C2C(=O)O", "note": "(configuration not stated) [Nafcillin]", "values": [
      {"measurement": "LC retention time", "result": 13.6, "unit": "min"}
    ]},
    {"smiles": "Nc1ccc(Br)cc1", "note": "[4-Bromoaniline]", "values": [
      {"measurement": "LC retention time", "result": 8.49, "unit": "min"}
    ]},
    {"smiles": "C=CC12CN(C)C3C4COC(CC41)C1(C(=O)Nc4ccccc41)C32", "note": "(configuration not stated) [Gelsemine]", "values": [
      {"measurement": "LC retention time", "result": 7.38, "unit": "min"}
    ]},
    {"smiles": "CC(C)CCCC(C)C1CCC2C3CC=C4CC(O)CCC4(C)C3CCC12C", "note": "(configuration not stated) [Cholesterol]", "values": [
      {"measurement": "LC retention time", "result": 21.4, "unit": "min"}
    ]},
    {"smiles": "CCCCCC(=O)OC1(C(C)=O)CCC2C3CCC4=CC(=O)CCC4C3CCC21C", "note": "(configuration not stated) [Gestonorone capronate]", "values": [
      {"measurement": "LC retention time", "result": 16.7, "unit": "min"}
    ]},
    {"smiles": "Cc1cc(-n2nc3ccc(Cl)cc3n2)c(O)c(C(C)(C)C)c1", "note": "[UV-326]", "values": [
      {"measurement": "LC retention time", "result": 17.6, "unit": "min"}
    ]},
    {"smiles": "CCOC(=O)C(SP(=S)(OC)OC)c1ccccc1", "note": "(configuration not stated) [Phenthoate]", "values": [
      {"measurement": "LC retention time", "result": 15.4, "unit": "min"}
    ]},
    {"smiles": "O=C(NC1CCCCC1)NC1CCCCC1", "note": "[Dicyclohexylurea]", "values": [
      {"measurement": "LC retention time", "result": 14, "unit": "min"}
    ]}
  ]
}
